From paper PMC4844176 (Xenobiotica; the fate of foreign compounds in biological …, 2015)

Columns and labels:
[1] = target: T1, UGT1A6 (Homo sapiens, UniProt P19224); test: Screening for aprepitant glucuronidation, UGT1A6 Supersomes; format: in vitro ADME; conditions: UGT1A6, 5 and 250 µM aprepitant
T1 sequence (P19224 27-532): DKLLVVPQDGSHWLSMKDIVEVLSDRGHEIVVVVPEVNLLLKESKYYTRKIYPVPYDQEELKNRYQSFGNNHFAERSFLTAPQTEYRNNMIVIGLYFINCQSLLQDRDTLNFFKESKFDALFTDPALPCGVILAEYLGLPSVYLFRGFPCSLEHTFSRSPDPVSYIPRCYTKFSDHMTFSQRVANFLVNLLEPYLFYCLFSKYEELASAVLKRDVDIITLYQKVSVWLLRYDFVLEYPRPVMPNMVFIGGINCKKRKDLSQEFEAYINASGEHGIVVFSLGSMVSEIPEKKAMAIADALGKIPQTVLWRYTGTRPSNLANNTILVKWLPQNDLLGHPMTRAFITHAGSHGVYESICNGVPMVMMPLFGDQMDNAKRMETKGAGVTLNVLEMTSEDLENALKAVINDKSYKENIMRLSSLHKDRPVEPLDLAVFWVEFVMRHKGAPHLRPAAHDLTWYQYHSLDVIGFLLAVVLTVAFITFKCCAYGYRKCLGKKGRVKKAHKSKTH

[2] = target: T2, UGT2B7 (Homo sapiens, UniProt P16662); test: Screening for aprepitant glucuronidation, UGT2B7 Supersomes; format: in vitro ADME; conditions: UGT2B7, 5 and 250 µM aprepitant
T2 sequence (P16662 24-529): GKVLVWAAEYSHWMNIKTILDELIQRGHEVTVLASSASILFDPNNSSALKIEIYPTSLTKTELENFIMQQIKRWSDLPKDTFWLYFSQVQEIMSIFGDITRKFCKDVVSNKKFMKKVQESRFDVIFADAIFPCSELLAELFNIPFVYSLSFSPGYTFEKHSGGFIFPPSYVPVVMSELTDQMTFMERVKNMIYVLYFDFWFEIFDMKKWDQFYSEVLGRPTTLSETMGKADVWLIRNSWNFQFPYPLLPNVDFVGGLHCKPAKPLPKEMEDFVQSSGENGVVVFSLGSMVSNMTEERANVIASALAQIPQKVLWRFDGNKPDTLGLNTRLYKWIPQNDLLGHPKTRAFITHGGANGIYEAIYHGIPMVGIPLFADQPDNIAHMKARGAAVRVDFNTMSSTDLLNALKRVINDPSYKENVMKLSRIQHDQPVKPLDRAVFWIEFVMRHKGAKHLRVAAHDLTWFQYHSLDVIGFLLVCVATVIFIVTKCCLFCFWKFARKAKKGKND

[3] = target: T2, UGT2B7; test: Inhibition by aprepitant of UGT2B7; format: in vitro ADME; conditions: UGT2B7 enzyme, pH 7.5, probe 4-MU
[4] = target: T3, UGT2B17 (Homo sapiens, UniProt O75795); test: Inhibition by aprepitant of UGT2B17; format: in vitro ADME; conditions: UGT2B17 enzyme, pH 7.5, probe 4-MU
T3 sequence (O75795 24-530): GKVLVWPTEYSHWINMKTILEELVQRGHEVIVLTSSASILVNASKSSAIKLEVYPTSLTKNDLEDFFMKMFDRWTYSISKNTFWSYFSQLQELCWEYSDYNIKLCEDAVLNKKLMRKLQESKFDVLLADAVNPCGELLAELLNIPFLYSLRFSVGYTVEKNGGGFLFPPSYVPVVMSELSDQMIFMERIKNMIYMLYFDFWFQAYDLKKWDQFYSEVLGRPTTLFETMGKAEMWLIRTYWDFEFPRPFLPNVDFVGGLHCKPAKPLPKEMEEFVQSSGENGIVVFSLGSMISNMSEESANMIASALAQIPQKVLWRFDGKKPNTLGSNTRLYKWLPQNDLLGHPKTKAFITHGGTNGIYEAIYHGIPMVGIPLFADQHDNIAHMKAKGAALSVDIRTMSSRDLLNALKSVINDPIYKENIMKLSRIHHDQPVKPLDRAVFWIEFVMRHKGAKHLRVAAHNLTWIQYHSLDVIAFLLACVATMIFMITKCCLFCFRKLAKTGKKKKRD

[5] = target: T2, UGT2B7; test: Ki determination of aprepitant on 4-MU-G, M-6-G and AZT-G formation in UGT2B7

AP-G formation [1]: not detected | AP-G formation [2]: not detected | inhibition at 1 µM [3]: ~17% | inhibition at 10 µM [3]: 70% | inhibition at 10 µM [4]: 10% | inhibition model ([5]; UGT2B7, substrate 4-MU): competitive inhibition model | inhibition model ([5]; UGT2B7, substrate AZT): competitive inhibition model | inhibition model ([5]; UGT2B7, substrate morphine): noncompetitive model
SMILES: C[C@@H](O[C@H]1OCCN(Cc2n[nH]c(=O)[nH]2)[C@H]1c1ccc(F)cc1)c1cc(C(F)(F)F)cc(C(F)(F)F)c1 [aprepitant, Aprepitant]
